Values belong to the compound of their own block, whether it stands above or below them.
Tests used:
LGC-40 [1] = target: T1, LGC-40 (Caenorhabditis elegans, UniProt Q22741); test: Inhibition of choline-evoked LGC-40 currents in Xenopus oocytes; type: cell-based
T1 sequence (Q22741 23-494): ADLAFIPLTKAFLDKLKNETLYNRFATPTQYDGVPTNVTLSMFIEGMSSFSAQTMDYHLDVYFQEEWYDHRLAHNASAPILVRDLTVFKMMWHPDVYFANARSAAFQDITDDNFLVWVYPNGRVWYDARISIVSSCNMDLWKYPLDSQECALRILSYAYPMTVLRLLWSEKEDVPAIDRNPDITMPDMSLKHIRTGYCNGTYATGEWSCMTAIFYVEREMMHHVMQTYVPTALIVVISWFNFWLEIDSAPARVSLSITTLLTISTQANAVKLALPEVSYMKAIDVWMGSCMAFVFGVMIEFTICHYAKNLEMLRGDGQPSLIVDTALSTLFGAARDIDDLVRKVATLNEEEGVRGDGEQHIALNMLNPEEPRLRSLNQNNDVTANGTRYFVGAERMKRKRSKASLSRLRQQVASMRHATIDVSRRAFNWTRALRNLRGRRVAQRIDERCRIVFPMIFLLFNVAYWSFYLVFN

LGC-40 [2] = target: T1, LGC-40; type: cell-based; conditions: for estimated Hill coefficient, LGC-40: dose-response data fitted to the Hill equation
LGC-53 [3] = target: T2, LGC-53 (Caenorhabditis elegans, UniProt H2KYN9)
LGC-53 [4] = target: T2, LGC-53; test: cell-based
LGC-53 [5] = target: T2, LGC-53; test: Inhibition of dopamine-evoked LGC-53 currents in Xenopus oocytes; type: cell-based
LGC-55 = LGC-55 (Caenorhabditis elegans, UniProt G5EEC1); type: cell-based
[6] = dose-response data fitted to the Hill equation
[7] = panel: serotonin, dopamine, octopamine, tyramine, histamine

Compound: C[N+]1(C)CCOC(O)(c2ccc(-c3ccc(C4(O)C[N+](C)(C)CCO4)cc3)cc2)C1 (stereo not shown) [Hemicholinium-3, hemicholinium-3]
IC50 (LGC-40 [1]): 2 µM

Compound: CC(=O)OCC[N+](C)(C)C [acetylcholine]
EC50 (LGC-40 [2]): 87 µM | estimated Hill coefficient, LGC-40 (LGC-40 [2]): 1.5

Compound: CN1[C@@H]2CC[C@H]1C[C@@H](OC(=O)C(CO)c1ccccc1)C2 (stereo partly shown) [atropine]
sensitivity of LGC-40 currents to antagonist (in words) (LGC-40 [1]; currents evoked by 2 μM choline): relatively insensitive

EC50 (LGC-40 [2]): 3.4 µM | estimated Hill coefficient, LGC-40 (LGC-40 [2]): 1.9
Compound: C[N+](C)(C)CCO [choline]

Compound: COc1cc2c3cc1Oc1cc(ccc1O)C[C@@H]1c4c(cc(OC)c(O)c4Oc4ccc(cc4)C[C@@H]3N(C)CC2)CC[N+]1(C)C [d-tubocurarine]
IC50 (LGC-40 [1]): 8.3 µM

Compound: NCCc1ccc(O)c(O)c1 [dopamine]
estimated Hill coefficient, LGC-53 (LGC-53 [3]; [6]): 1.9 | efficacy of activation of LGC-53 among the biogenic amines tested (in words) (LGC-53 [3]; [7]): highest efficacy | EC50 (LGC-53 [4]): 4.4 µM

Compound: NCCc1c[nH]c2ccc(O)cc12 [serotonin]
EC50 (LGC-40 [2]): 905 µM | estimated Hill coefficient, LGC-40 (LGC-40 [2]): 2.7

IC50 (LGC-53 [5]): 38 µM
Compound: O=C(CCCN1CCC2(CC1)C(=O)NCN2c1ccccc1)c1ccc(F)cc1 [spiperone]

EC50 (LGC-55): 6 µM | estimated Hill coefficient, LGC-55 (LGC-55; [6]): 1.8 | efficacy of activation of LGC-55 among the biogenic amines tested (in words) (LGC-55; [7]): highest efficacy
Compound: NCCc1ccc(O)cc1 [tyramine]
